# According to EP0824862A1, “Dihaloformaldoxime carbamates as antimicrobial agents” (ROHM AND HAAS COMPANY, priority 1996, dated 1998):
# Experiments:
# Format in all cases: cell-based
# Escherichia coli = assay: Minimum Inhibitory Concentration (MIC) test, two fold serial dilutions; conditions: unit assumed; for MIC E.Coli M9G: Minimal Salts Media (M9G); for MIC E. Coli TSB: Trypticase Soy Broth (TSB); for MIC E. coli TSBA: Trypticase Soy Broth and anionic surfactant (TSBA)
# Experimental: (§1) The spectrum of antimicrobial activity and the effect of anionic surfactant on the antimicrobial activity of the antimicrobial agents useful in the present invention were determined in Minimum Inhibitory Concentration (MIC) tests. MICs were determined by two fold serial dilutions of a compound in Minimal Salts Media (M9G), Trypticase Soy Broth (TSB) or Tryticase Soy Broth and anionic surfactant (TSBA). The compounds were tested against Aspergillus niger, Rhodotorula rubra, Escherichia coli and Pseudomonas aeruginosa. Results of the MIC tests are shown below.
# Aspergillus niger = assay: as above; conditions: Trypticase Soy Broth (TSB); unit assumed
# Experimental: as §1
# Rhodotorula rubra = assay: as above; conditions: Trypticase Soy Broth (TSB); unit assumed
# Experimental: as §1
# Pseudomonas aeruginosa = assay: as above; conditions: Trypticase Soy Broth (TSB); unit assumed
# Experimental: as §1
# [1] = system: Pseudomonas aeruginosa, Klebsiella pneumonia, Enterobacter aerogenes; assay: Speed of kill test in synthetic cooling water; conditions: mixed culture 1:1:1, 10^6 cells per mL, concentration giving at least a two log reduction
SMILES,MIC E.Coli M9G (Escherichia coli) [µg/mL],MIC E. Coli TSB (Escherichia coli) [µg/mL],MIC E. coli TSBA (Escherichia coli) [µg/mL],MIC A. niger TSB (Aspergillus niger) [µg/mL],MIC R. Rubra TSB (Rhodotorula rubra) [µg/mL],MIC P. aeruginosa TSB (Pseudomonas aeruginosa) [µg/mL],Effective Concentration 4 Hours [1] [ppm],Effective Concentration 24 Hours [1] [ppm]
"O=C(Nc1ccc(Cl)cc1)ON=C(Br)Br [Compound 3, N-(4-chlorophenyl)-dibromoformaldoxime carbamate]",< 4,63,63,> 50,> 50,63,8,<4
"CCCCNC(=O)ON=C(Br)Br [Compound 6, N-(n-butyl)-dibromoformaldoxime carbamate]",< 4,250,63,> 50,> 50,63,16,16
"CCCCCCCCNC(=O)ON=C(Br)Br [Compound 7, N-(n-octyl)-dibromoformaldoxime carbamate]",< 4,63,125,50,12.5,> 500,,
"CCCCCCNC(=O)ON=C(Br)Br [Compound 8, N-(n-hexyl)-dibromoformaldoxime carbamate]",< 4,63,32,> 50,25,125,<4,<4
"Cc1ccc(NC(=O)ON=C(Br)Br)cc1 [Compound 9, N-(4-methylphenyl)-dibromoformaldoxime carbamate]",< 4,32,32,< 0.8,3.2,16,125,8
